Experimental data reported in patent US9687479B2, “Multisubstituted aromatic compounds as serine protease inhibitors” (VERSEON CORPORATION, priority 2013, dated 2017).

Molecular target: Human thrombin (Homo sapiens (Human), UniProt P00734)
Assay: Thrombin protease activity inhibition assay (chromogenic substrate S-2238)
Assay type: biochemical
Conditions: 3 nM thrombin, 125 μM S-2238, 10 min pre-incubation, RT
Method in brief: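 Thrombin at 3 nM final in 0.05 M Tris pH 7.4, 0.015 M NaCl, 0.01% PEG-8000, at room temperature; compounds as ten-point three-fold dilutions.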

| SMILES | IC50 [nM] |
| --- | --- |
| O=c1c(-c2cc(NCc3ccc(Cl)s3)[nH]n2)cccn1Cc1nnn[nH]1 [Cmpd 219, 3-(5-[(5-chlorothiophen-2-yl)methyl]amino-1H-pyrazol-3-yl)-1-(1H-1,2,3,4-tetrazol-5-ylmethyl)-1,2-dihydropyridin-2-one] | 10000 to 100000 |
| CC(C)(C)c1ccc(C(=O)n2nc(-c3ccc[nH]c3=O)cc2NCc2ccc(Cl)s2)cc1 [Cmpd 253, 3-1-[(4-tert-butylphenyl)carbonyl]-5-[(5-chlorothiophen-2-yl)methyl]amino-1H-pyrazol-3-yl-1,2-dihydropyridin-2-one] | < 100 |
| O=C(c1ccsc1)n1nc(-c2cccn(Cc3cccnc3)c2=O)cc1NCc1ccc(Cl)s1 [Cmpd 199, 3-(5-[(5-chlorothiophen-2-yl)methyl]amino-1-[(thiophen-3-yl)carbonyl]-1H-pyrazol-3-yl)-1-(pyridin-3-ylmethyl)-1,2-dihydropyridin-2-one] | > 100000 |
| COCCn1cccc(-c2cc(NCc3ccc(Cl)s3)n(C(=O)C(C)(C)C)n2)c1=O [Cmpd 75, 3-(5-[(5-chlorothiophen-2-yl)methyl]amino-1-(2,2-dimethylpropanoyl)-1H-pyrazol-3-yl)-1-(2-methoxyethyl)-1,2-dihydropyridin-2-one] | < 100 |
| O=C(c1ccoc1)n1nc(-c2cccn(Cc3ccc(Cl)s3)c2=O)cc1NCc1ccc(Cl)s1 [Cmpd 41, 1-[(5-chlorothiophen-2-yl)methyl]-3-(5-[(5-chlorothiophen-2-yl)methyl]amino-1-[(furan-3-yl)carbonyl]-1H-pyrazol-3-yl)-1,2-dihydropyridin-2-one] | < 100 |
| COc1ccccc1C(=O)n1nc(-c2cccn(CCc3ccccc3)c2=O)cc1NCc1ccc(Cl)s1 [Cmpd 134, 3-(5-[(5-chlorothiophen-2-yl)methyl]amino-1-[(2-methoxyphenyl)carbonyl]-1H-pyrazol-3-yl)-1-(2-phenylethyl)-1,2-dihydropyridin-2-one] | < 100 |
| Nc1cc(-c2cccn(Cc3ccccn3)c2=O)nn1C(=O)c1ccco1 [Cmpd 256, 3-5-amino-1-[(furan-2-yl)carbonyl]-1H-pyrazol-3-yl-1-(pyridin-2-ylmethyl)-1,2-dihydropyridin-2-one] | 1000 to 10000 |
| COCC(C)(C)C(=O)n1nc(-c2ccc[nH]c2=O)cc1NCc1ccc(Cl)s1 [Cmpd 96, 3-(5-[(5-chlorothiophen-2-yl)methyl]amino-1-(3-methoxy-2,2-dimethylpropanoyl)-1H-pyrazol-3-yl)-1,2-dihydropyridin-2-one] | < 100 |
| N#CCn1cccc(-c2cc(NCc3ccc(Cl)s3)n(C(=O)c3ccoc3)n2)c1=O [Cmpd 58, 2-[3-(5-[(5-chlorothiophen-2-yl)methyl]amino-1-[(furan-3-yl)carbonyl]-1H-pyrazol-3-yl)-2-oxo-1,2-dihydropyridin-1-yl]acetonitrile] | < 100 |
| CC(C)(C)C(=O)n1nc(-c2cccn(Cc3ccsc3)c2=O)cc1NCc1ccc(Cl)s1 [Cmpd 87, 3-(5-[(5-chlorothiophen-2-yl)methyl]amino-1-(2,2-dimethylpropanoyl)-1H-pyrazol-3-yl)-1-(thiophen-3-ylmethyl)-1,2-dihydropyridin-2-one] | < 100 |
| COc1ccccc1C(=O)n1nc(-c2cccn(Cc3ccccc3)c2=O)cc1NCc1ccc(Cl)s1 [Cmpd 47, 1-benzyl-3-(5-[(5-chlorothiophen-2-yl)methyl]amino-1-[(2-methoxyphenyl)carbonyl]-1H-pyrazol-3-yl)-1,2-dihydropyridin-2-one] | < 100 |
| CC(C)(C)C(=O)n1nc(-c2cccn(Cc3cccc(Cl)c3)c2=O)cc1NCc1ccc(Cl)s1 [Cmpd 31, 1-[(3-chlorophenyl)methyl]-3-(5-[(5-chlorothiophen-2-yl)methyl]amino-1-(2,2-dimethylpropanoyl)-1H-pyrazol-3-yl)-1,2-dihydropyridin-2-one] | < 100 |
| CC(C)(C)OC(=O)Cn1cccc(-c2cc(NCc3ccc(Cl)s3)n(C(=O)c3ccoc3)n2)c1=O [Cmpd 263, tert-butyl 2-[3-(5-[(5-chlorothiophen-2-yl)methyl]amino-1-[(furan-3-yl)carbonyl]-1H-pyrazol-3-yl)-2-oxo-1,2-dihydropyridin-1-yl]acetate] | < 100 |
| O=C(c1cccs1)n1nc(-c2cccn(CCN3CCOCC3)c2=O)cc1NCc1ccc(Cl)s1 [Cmpd 192, 3-(5-[(5-chlorothiophen-2-yl)methyl]amino-1-[(thiophen-2-yl)carbonyl]-1H-pyrazol-3-yl)-1-[2-(morpholin-4-yl)ethyl]-1,2-dihydropyridin-2-one] | > 100000 |
| O=C(c1ccsc1)n1nc(-c2ccc[nH]c2=O)cc1NCc1ccc(Cl)s1 [Cmpd 193, 3-(5-[(5-chlorothiophen-2-yl)methyl]amino-1-[(thiophen-3-yl)carbonyl]-1H-pyrazol-3-yl)-1,2-dihydropyridin-2-one] | < 100 |
| O=C(c1ccco1)n1nc(-c2cccn(Cc3ccccn3)c2=O)cc1NCc1ccc(F)cc1 [Cmpd 74, 3-(5-[(4-fluorophenyl)methyl]amino-1-[(furan-2-yl)carbonyl]-1H-pyrazol-3-yl)-1-(pyridin-2-ylmethyl)-1,2-dihydropyridin-2-one] | < 100 |
| CC(C)(C)C(=O)n1nc(-c2cccn(Cc3cccnc3)c2=O)cc1NCc1ccc(Cl)s1 [Cmpd 83, 3-(5-[(5-chlorothiophen-2-yl)methyl]amino-1-(2,2-dimethylpropanoyl)-1H-pyrazol-3-yl)-1-(pyridin-3-ylmethyl)-1,2-dihydropyridin-2-one] | < 100 |
| O=C(c1ccccc1Cl)n1nc(-c2cccn(Cc3cccnn3)c2=O)cc1NCc1ccc(Cl)s1 [Cmpd 245, 3-1-[(2-chlorophenyl)carbonyl]-5-[(5-chlorothiophen-2-yl)methyl]amino-1H-pyrazol-3-yl-1-(pyridazin-3-ylmethyl)-1,2-dihydropyridin-2-one] | < 100 |
| COCC(C)(C)C(=O)n1nc(-c2cccn(Cc3ccoc3)c2=O)cc1NCc1ccc(Cl)s1 [Cmpd 99, 3-(5-[(5-chlorothiophen-2-yl)methyl]amino-1-(3-methoxy-2,2-dimethylpropanoyl)-1H-pyrazol-3-yl)-1-(furan-3-ylmethyl)-1,2-dihydropyridin-2-one] | < 100 |
| O=c1c(-c2cc(NCc3ccc(Cl)s3)[nH]n2)cccn1Cc1ncccn1 [Cmpd 230, 3-(5-[(5-chlorothiophen-2-yl)methyl]amino-1H-pyrazol-3-yl)-1-(pyrimidin-2-ylmethyl)-1,2-dihydropyridin-2-one] | > 100000 |
| O=C(c1ccoc1)n1nc(-c2cccn(Cc3cccnn3)c2=O)cc1NCc1ccc(Cl)s1 [Cmpd 176, 3-(5-[(5-chlorothiophen-2-yl)methyl]amino-1-[(furan-3-yl)carbonyl]-1H-pyrazol-3-yl)-1-(pyridazin-3-ylmethyl)-1,2-dihydropyridin-2-one] | < 100 |

The next lines start with the values.

| IC50 [nM] | SMILES |
| --- | --- |
| < 100 | O=C(c1cccs1)n1nc(-c2cccn(Cc3ccco3)c2=O)cc1NCc1ccc(Cl)s1 [Cmpd 183, 3-(5-[(5-chlorothiophen-2-yl)methyl]amino-1-[(thiophen-2-yl)carbonyl]-1H-pyrazol-3-yl)-1-(furan-2-ylmethyl)-1,2-dihydropyridin-2-one] |
| < 100 | COc1ccc(C(=O)n2nc(-c3cccn(Cc4ccncc4)c3=O)cc2NCc2ccc(Cl)s2)c(OC)c1 [Cmpd 127, 3-(5-[(5-chlorothiophen-2-yl)methyl]amino-1-[(2,4-dimethoxyphenyl)carbonyl]-1H-pyrazol-3-yl)-1-(pyridin-4-ylmethyl)-1,2-dihydropyridin-2-one] |
| < 100 | O=C(c1ccccc1Cl)n1nc(-c2cccn(Cc3cccs3)c2=O)cc1NCc1ccc(Cl)s1 [Cmpd 250, 3-1-[(2-chlorophenyl)carbonyl]-5-[(5-chlorothiophen-2-yl)methyl]amino-1H-pyrazol-3-yl-1-(thiophen-2-ylmethyl)-1,2-dihydropyridin-2-one] |
| < 100 | O=C(c1ccc(N2CCOCC2)cc1)n1nc(-c2cccn(Cc3cccnn3)c2=O)cc1NCc1ccc(Cl)s1 [Cmpd 211, 3-(5-[(5-chlorothiophen-2-yl)methyl]amino-1-[4-(morpholin-4-yl)phenyl]carbonyl-1H-pyrazol-3-yl)-1-(pyridazin-3-ylmethyl)-1,2-dihydropyridin-2-one] |
| < 100 | COc1ccccc1C(=O)n1nc(-c2cccn(Cc3ccco3)c2=O)cc1NCc1ccc(Cl)s1 [Cmpd 135, 3-(5-[(5-chlorothiophen-2-yl)methyl]amino-1-[(2-methoxyphenyl)carbonyl]-1H-pyrazol-3-yl)-1-(furan-2-ylmethyl)-1,2-dihydropyridin-2-one] |
| < 100 | O=C(c1ccccc1)n1nc(-c2cccn(Cc3ccccc3)c2=O)cc1NCc1ccc(Cl)s1 [Cmpd 72, 3-(1-benzoyl-5-[(5-chlorothiophen-2-yl)methyl]amino-1H-pyrazol-3-yl)-1-benzyl-1,2-dihydropyridin-2-one] |
| < 100 | CC(C)(C)C(=O)n1nc(-c2cccn(Cc3ccncc3)c2=O)cc1NCc1ccc(Cl)s1 [Cmpd 84, 3-(5-[(5-chlorothiophen-2-yl)methyl]amino-1-(2,2-dimethylpropanoyl)-1H-pyrazol-3-yl)-1-(pyridin-4-ylmethyl)-1,2-dihydropyridin-2-one] |
| < 100 | COCC(C)(C)C(=O)n1nc(-c2cccn(CCN3CCOCC3)c2=O)cc1NCc1ccc(Cl)s1 [Cmpd 107, 3-(5-[(5-chlorothiophen-2-yl)methyl]amino-1-(3-methoxy-2,2-dimethylpropanoyl)-1H-pyrazol-3-yl)-1-[2-(morpholin-4-yl)ethyl]-1,2-dihydropyridin-2-one] |
| < 100 | O=C(c1ccco1)n1nc(-c2cccn(Cc3ccco3)c2=O)cc1NCc1ccc(Cl)s1 [Cmpd 161, 3-(5-[(5-chlorothiophen-2-yl)methyl]amino-1-[(furan-2-yl)carbonyl]-1H-pyrazol-3-yl)-1-(furan-2-ylmethyl)-1,2-dihydropyridin-2-one] |
| < 100 | CC(C)(C)C(=O)n1nc(-c2cccn(CCc3ccccc3)c2=O)cc1NCc1ccc(Cl)s1 [Cmpd 76, 3-(5-[(5-chlorothiophen-2-yl)methyl]amino-1-(2,2-dimethylpropanoyl)-1H-pyrazol-3-yl)-1-(2-phenylethyl)-1,2-dihydropyridin-2-one] |
